PMC9181795, “Ibuprofen Favors Binding of Amyloid-β Peptide to Its Depot, Serum Albumin” (International Journal of Molecular Sciences, 2022)

How the values were obtained:
Aβ40(A21G) = assay: ThT fluorescence assay, Aβ40(A21G) fibrillation; assay type: biochemical, human; details: 20 µM IBU, 20 µM Aβ40(A21G), no HSA, 30 °C, pH 7.4
Description: ThT fluorescence emission measurements were carried out using a BioTek Synergy H1 multimode microplate reader and Greiner Bio-One non-binding microplates #781906 mainly as described in ref. [11]. […] ThT fluorescence was excited at 440 nm and emission at 485 nm was measured for 190 h every 30 min, with orbital shaking prior to each measurement. […] The lag time, tlag, is calculated as (t0 − 2/kapp).

AD = system: AD; parameters: method as in 2 sources, one per row (each row's own in cited_ref): ref [36],[37],[38] = [36]; PMID 11794217; doi:10.1056/NEJMoa010178; 36. In’T Veld B.A. Ruitenberg A. Hofman A. Launer L.J. Van Duijn C.M. Stijnen T. Breteler M.M. Stricker B.H. Nonsteroidal antiinflammatory drugs and the risk of Alzheimer’s disease N. Engl. J. Med. 20 || [37]; PMID 18458226; doi:10.1212/01.wnl.0000311269.57716.63; 37. Vlad S.C. Miller D.R. Kowall N.W. Felson D.T. Protective effects of NSAIDs on the development of Alzheimer disease Neurology 2008 70 1672 1677 10.1212/01.wnl.0000311269.57716.63 18458226 PMC275824 || [38]; PMID 25227314; doi:10.3233/JAD-141506; 38. Wang J. Tan L. Wang H.F. Tan C.C. Meng X.F. Wang C. Tang S.W. Yu J.T. Anti-inflammatory drugs and risk of Alzheimer’s disease: An updated systematic review and meta-analysis J. Alzheimers Dis. 201 ||| ref [36],[37],[73] = [36]; PMID 11794217; doi:10.1056/NEJMoa010178; 36. In’T Veld B.A. Ruitenberg A. Hofman A. Launer L.J. Van Duijn C.M. Stijnen T. Breteler M.M. Stricker B.H. Nonsteroidal antiinflammatory drugs and the risk of Alzheimer’s disease N. Engl. J. Med. 20 || [37]; PMID 18458226; doi:10.1212/01.wnl.0000311269.57716.63; 37. Vlad S.C. Miller D.R. Kowall N.W. Felson D.T. Protective effects of NSAIDs on the development of Alzheimer disease Neurology 2008 70 1672 1677 10.1212/01.wnl.0000311269.57716.63 18458226 PMC275824 || [73]; PMID 33134914; doi:10.1093/braincomms/fcaa109; 73. Rivers-Auty J. Mather A.E. Peters R. Lawrence C.B. Brough D. Anti-inflammatories in Alzheimer’s disease—potential therapy or spurious correlate? Brain Commun. 2020 2 fcaa109 10.1093/braincomms/fca; details: cited from earlier work

## CC(C)Cc1ccc(C(C)C(=O)O)cc1 (stereo not drawn) [IBU, 2-[4-(2-methylpropyl)phenyl]propanoic acid]
Aβ40(A21G)
  suppression of fibrillation by IBU alone: does not induce statistically significant suppression of the fibrillation process
AD; ref [36],[37],[73]
  rates of AD among people taking IBU for chronic treatment of inflammatory conditions: lower rates of AD
AD; retrospective studies, ref [36],[37],[38]
  AD protection with long-term use of nonsteroidal anti-inflammatory drugs, including IBU: protective against AD
